# US10392367B2, “IRE1 small molecule inhibitors” (QUENTIS THERAPEUTICS, INC., priority 2017, dated 2019)
# Assays:
# IRE1a [1] = target: T1, IRE1a (Homo sapiens, UniProt O75460); test: IRE1a Endoribonuclease Nanoluciferase Assay (XBP1 luciferase reporter in 293 T cells); format: cell-based; settings: 293 T cells transfected with XBP1 luciferase reporter plasmid
# Experimental: Compounds disclosed herein were assessed for disruption of IRE1 signaling using a IRE1a Endoribonuclease Nanoluciferase Assay. Briefly, 2.5×10^6 293 T cells were seeded in a 10 cm^2 tissue culture plate. About 24 hours later, the cells were transfected with Effectene. In a 15 mL Tube, the following was added: 2 μg XBP1 luciferase reporter plasmid (PGK-Luc2-P2A-XBP1u-Nanoluciferase-PEST); 300 μl EC buffer; and 16 μl Enhancer, followed by incubation at room temp for 5 minutes. Next, 60 μl Effectene (Qiagen 301427) was added, followed by incubation at room temperature for 10 minutes. 2.6 mL cDMEM media was added. Old media was aspirated from the cells, followed by addition of 7 mL fresh media. Full transfection mixture was added dropwise to cells. Cells were incubated for 6 hours, followed by tripsinization, centrifugation and resuspension in 11 mL media. 100 uL of cells were plated per a well in a 96 well plate. A day later, stressors of choice+/− inhibitors were added. To harvest, media was aspirated from cells completely, then 50 uL 1× passive lysis buffer (Promega: E1941) was added per well and put on shaker (300 rpm) for 30 minutes at room temperature. Cells were centrifuged, and 15 uL sample per well was added to a new, opaque white 384 well plate (Corning 3570). 15 uL OneGlo (nanoluciferase kit, Promega N1630) was added. Plates were spun down, placed on shaker (300 rpm) for 10 minutes. Plates were read on luminometer, 1000 ms integration time per well. 15 uL Stop and Glo (nanoluciferase kit) was added. Plates were spun down, placed on shaker (300 rpm) for 10 minutes. Plates were read on luminometer, 1000 ms second integration time per well. Recordings are provided below in Table 4.
# IRE1a [2] = target: T1, IRE1a; test: In vitro FRET assay (XBP1 RNA probe cleavage by IRE1a); format: biochemical; set-up: purchased SignalChem; settings: SignalChem IRE1a protein 2 nM
# Experimental: In vitro FRET assay was performed to evaluate the ability of select compounds to inhibit IRE1, the results of which are summarized in Table 3. To perform the in vitro FRET assay, 1× complete assay buffer (CAB; […] DTT, 50 mM sodium citrate pH 7.15, 1 mM magnesium acetate, 0.02% tween 20) was used to dilute SignalChem IRE1a protein to a final concentration of 2 nM. Selected compounds were serially diluted with DMSO in a non-binding black 384-well plate for a total of 15 ul in each well. 2 ul of the serially diluted compound or DMSO control were then added to new wells containing 98 ul of 1×CAB, for a total volume of 100 ul, 10 ul of which were then transferred to wells of a new plate. 5 ul of the diluted IRE1a was then added to each well. 5 ul of a […] XBP1 RNA probe was then added to each well. Fluorescence was then read over 30 minutes in kinetic mode (485/515 nm).
# Two RNA probes were used, XBP1 wildtype (SEQ ID NO: 2) which is able to be spliced by active IRE1a or XBP1 mutant (SEQ ID NO: 3) which is unable to be spliced. Each probe contained a 5′ 6-FAM modification and a 3′ IOWA Black FQ modification.
# T1 sequence (O75460 19-977): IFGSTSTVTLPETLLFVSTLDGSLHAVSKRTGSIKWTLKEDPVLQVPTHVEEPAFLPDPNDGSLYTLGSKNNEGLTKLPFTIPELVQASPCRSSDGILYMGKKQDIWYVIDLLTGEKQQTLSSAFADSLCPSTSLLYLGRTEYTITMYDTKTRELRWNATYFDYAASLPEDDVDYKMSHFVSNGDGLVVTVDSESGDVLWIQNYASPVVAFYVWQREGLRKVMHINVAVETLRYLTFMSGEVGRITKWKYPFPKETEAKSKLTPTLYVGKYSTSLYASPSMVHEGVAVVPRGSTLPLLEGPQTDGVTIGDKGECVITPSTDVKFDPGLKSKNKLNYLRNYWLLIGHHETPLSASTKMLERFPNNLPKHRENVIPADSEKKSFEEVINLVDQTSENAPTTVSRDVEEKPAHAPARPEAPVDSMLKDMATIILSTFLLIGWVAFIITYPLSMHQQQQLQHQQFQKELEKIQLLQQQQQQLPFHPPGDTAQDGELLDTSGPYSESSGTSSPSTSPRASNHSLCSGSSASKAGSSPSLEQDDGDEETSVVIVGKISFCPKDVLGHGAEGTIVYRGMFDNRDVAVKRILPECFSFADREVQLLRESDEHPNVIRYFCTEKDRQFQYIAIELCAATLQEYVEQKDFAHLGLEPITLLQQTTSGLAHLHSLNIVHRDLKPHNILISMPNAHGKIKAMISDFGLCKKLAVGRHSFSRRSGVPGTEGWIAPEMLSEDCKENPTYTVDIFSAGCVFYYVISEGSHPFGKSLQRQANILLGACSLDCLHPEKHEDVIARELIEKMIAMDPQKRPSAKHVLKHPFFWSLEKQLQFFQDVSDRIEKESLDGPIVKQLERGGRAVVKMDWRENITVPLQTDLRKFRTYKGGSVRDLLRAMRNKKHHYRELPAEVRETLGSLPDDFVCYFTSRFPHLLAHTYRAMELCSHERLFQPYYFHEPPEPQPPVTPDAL
smiles,measurement,setting,value
"CCc1cc(-c2cc(NC(=O)C(CC)c3ccccc3)nn2C)cc2cnc(N[C@H]3CC[C@H](N)CC3)nc12 (some centres unmarked) [Compound 16, N-(5-(2-(((1r,4r)-4-aminocyclohexyl)amino)-8-ethylquinazolin-6-yl)-1-methyl-1H-pyrazol-3-yl)-2-phenylbutanamide]",EC50,IRE1a [1],> 100 nM
same,IC50,IRE1a [2],≤ 5 nM
